pIC50: −log10 of the molar value.
What was measured:
Fadu cell line = test: Additional in vitro IC50 tests (Table 3); assay type: cell-based; conditions: Homo sapiens
Method: (§1) Cell lines were maintained according to the instructions provided by ATCC (https://www.lgcstandards-atcc.org/) in a 5% CO2 humidified incubator maintained at 37° C. temperature. Effects of compounds on cell viability were measured via CellTiter-Glo® luminescent cell viability assay (Promega, Madison, WI, USA) Cells were plated at 1000 cells/well onto a flat-bottomed, white 96 well plate (BRANDplates, cat. no.: 781965). […] After the treatment, medium was removed and CellTiter-Glo® reagent was added. The luminescence signal was recorded using a microplate reader (BioTek Synergy 2 Multi-Mode Reader, BioTek, Winooski, VT, USA).
(§2) Cell viability data (% of untreated control cells) was evaluated with Microsoft Excel. Dose-response curves (using a non-linear regression model, log (inhibitor) vs response, variable slope) were generated and IC50 values were determined using Graph Pad Prism 5.02 software (GraphPad Software, San Diego, CA, USA).

EBC-1 cell line = test: Additional in vitro IC50 tests (Table 3); assay type: cell-based; conditions: Homo sapiens
Method: as §1, §2

SCC-25 cell line = test: Additional in vitro IC50 tests (Table 3); assay type: cell-based; conditions: Homo sapiens
Method: as §1, §2

Detroit 562 cell line = test: Additional in vitro IC50 tests (Table 3); assay type: cell-based; conditions: Homo sapiens
Method: as §1, §2

H2228 cell line = test: Additional in vitro IC50 tests (Table 3); assay type: cell-based; conditions: Homo sapiens, NCI-H2228
Method: as §1, §2

[1] = system: Panc1 pancreatic cancer cell line; test: CellTiter-Glo IC50 (Example 19); assay type: cell-based; conditions: Homo sapiens, PANC-1, 72 h
Method: Some representative imipridones and ONC212 as reference were further tested on the following human malignant cell lines: PC3 and LNCap (prostate carcinoma); BxPC3, MiaPaCa2 and Panc1 (pancreatic cancer); A549, HCC827, H1993 and H520 (lung carcinoma); MDA-MB-453 and MDA-MB-231 (breast cancer) (see Table 2 and FIGS. 1-11).
as §1, §2

Structure (SMILES)	pIC50 (Fadu cell line)	pIC50 (EBC-1 cell line)	pIC50 (SCC-25 cell line)	pIC50 (Detroit 562 cell line)	pIC50 (H2228 cell line)	melting point [°C]	pIC50 [1]
NCc1cccc(CN2C(=O)C3=C(CCN(Cc4cc(F)cc(F)c4)C3)N3CCN=C23)c1 [I/61, 4-(3-(Aminomethyl)benzyl)-7-(3,5-difluorobenzyl)-2,4,6,7,8,9-hexahydroimidazo[1,2-a]pyrido[3,4-e]pyrimidin-5(1H)-one]	7.66	7.54	7.05	7.08	6.98	129.5	6.52
O=C1C2=C(CCN(Cc3cc(F)cc(F)c3)C2)N2CCN=C2N1[C@H](CO)c1ccc(F)cc1 [I/129 (S)]	6.82	< 6.52	< 6.52	6.92	6.52		6.58
O=C1C2=C(CCN(Cc3cc(F)cc(F)c3)C2)N2CCN=C2N1C(CO)c1ccc(Cl)cc1 (racemic) [I/128]	7.92	7.89	7.72	8.30	7.92	86	8.00
[N-]=[N+]=Nc1cccc(CN2C(=O)C3=C(CCN(Cc4cc(F)cc(F)c4)C3)N3CCN=C23)c1 [I/127, 4-(3-Azidobenzyl)-7-(3,5-difluorobenzyl)-2,4,6,7,8,9-hexahydroimidazo[1,2-a]pyrido[3,4-e]pyrimidin-5(1H)-one]	7.80	7.80	7.68	8.00	7.82	158	

Source: patent publication US20230295162A1 (EÖTVÖS LORÁND TUDOMÁNYEGYETEM, priority 2020, published 2023)
